Data set [1] has as its target T1, mTOR (Homo sapiens, UniProt P42345).
T1 construct: endogenous in cells; host or cells: primary human CD4+ and CD8+ T cells transduced with an anti-CD19 CAR
The data set is described as follows: Intracellular S6 phosphorylation in engineered T cells produced with mTOR kinase inhibitor. The data set is classed as cell-based. To be noted: 1 μM Compound 63 during process; CD8+ memory subsets. The method, then: (§1) CD4+ and CD8+ T cells were isolated by immunoaffinity-based enrichment from leukapheresis samples from human donor subjects. At day 1, isolated CD4+ and CD8+ T cells were mixed 1:1 and stimulated with an anti-CD3/anti-CD28 oligomeric stimulatory reagent generated as described in Example 2 in serum-free media supplemented with recombinant IL-2 (100 IU/mL), recombinant IL-7 (600 IU/mL), and recombinant IL-15 (100 IU/mL) with or without 1 μM of 2-(3-hydroxyphenyl)-9-(2-isopropylphenyl)-8-oxo-8,9-dihydro-7H-purine-6-carboxamide (Compound 63). The T cells cultured with our without Compound 63 were incubated overnight (approximately 24 hr) at 37° C., and were then transduced in serum-free culture media with our without Compound 63 ([…]) with a lentiviral vector encoding an anti-CD19 CAR. […]
(§2) The cryofrozen engineered CD4+ and CD8+ T cells were thawed, and T cells were assessed for intracellular S6 phosphorylation, a ribosomal protein and marker of mTOR inhibition, and co-stained for surface expression of CD4 or CD8 and for CCR7 and CD45RA as markers of memory subsets. pS6 expression in live CD8+ T cells by memory subsets was shown by the expression of CCR7 and CD45RA as shown in FIG. 30A.

Data set [2] deals with CD4+ and CD8+ T cells. The experiment in a line: Percent viable and total live cells of T cell composition produced with Compound 63. The data set is classed as cell-based, human. The following applies: 1 μM Compound 63 during process. Here is the method: as §1, §2
Data set [3] has as its system CAR-T cells. The data set is described as follows: Apoptosis marker (intracellular caspase) in thawed CAR-T cells. It counts as cell-based, human. To be noted: vs cells not incubated with compound 63. The method, then:
(§3) Thawed cells generated by the process described were assessed for a marker of apoptosis (e.g., percentage of caspase positive CAR-T cells), phenotypic profile, and ability to produce intracellular cytokines following stimulation with PMA/Ionomycin and a Golgi Inhibitor. […] Thawed cells also were stained for surface expression of CD27 and CCR7 by flow cytometry.

Data set [4] has as its system CD27 and CCR7. The data set is described as follows: Surface CD27 and CCR7 phenotype of T cells produced with Compound 63. The data set is classed as cell-based, human. To be noted: CD8+ and CD4+ T cells. Here is the method:
as §3

Data set [5] has as its system CD4+ and CD8+ T cells. The data set is described as follows: Intracellular cytokines after PMA/Ionomycin and Golgi inhibitor. It counts as cell-based, human. The method, then:
as §3

The test system of data set [6] is anti-idiotype (ID) antibody against the anti-CD19 CAR. The experiment in a line: Long-term 12 day stimulation with anti-idiotype antibody beads. It counts as cell-based, human. The following applies: 12 days anti-ID beads. From the text:
To further assess the functional activity of the cells, the generated T cell compositions were stimulated long-term over 12 days with beads conjugated with an anti-idiotype (ID) antibody against the anti-CD19 CAR, and expansion and survival of the cells were monitored (FIG. 31F, left panel) and total expansion metric calculated by area under the curve (FIG. 31F, right panel).

SMILES strings stand for the structures.

For the compound `CC(C)c1ccccc1-n1c(=O)[nH]c2c(C(N)=O)nc(-c3cccc(O)c3)nc21` [Compound 63, 2-(3-hydroxyphenyl)-9-(2-isopropylphenyl)-8-oxo-8,9-dihydro-7H-purine-6-carboxamide], the “pS6 mean fluorescence intensity (marker of mTOR inhibition)” value in data set [1] is “decreased the mean fluorescence intensity of stimulated memory T cell subsets”. Besides, the “percent viable cells or total live cells” value in data set [2] is “did not impact the percent viable cells or the total live cells”. Also, the intracellular caspase expression result in data set [3] was “less intracellular caspase expression”. Further, the “phenotypic subset profile by CD27 and/or CCR7” value in data set [4] was “did not substantially alter the phenotypic subset profile of the cells”. Besides, the “level of intracellular cytokines IL2, IFNg, or TNF” value in data set [5] is given as “substantially improved”. Further, in data set [6], the “expansion and survival after long-term CAR-specific stimulation” value is recorded as “improved function of the T cells was observed following long-term CAR-specific stimulation”.

(Values after patent US12516099B2, “Processes for generating engineered cells and compositions thereof” (Juno Therapeutics, Inc., priority 2018, dated 2026).)
